{
  "source": "ChEMBL document CHEMBL2203034",
  "about": "“A new approach to explore the binding space of polysaccharide-based ligands: selectin antagonists” (ACS Med Chem Lett, 2012)",
  "key": {"[1]": {"target": "T1, P-selectin (Homo sapiens) (UniProt P16109)", "T1 sequence (whole entry)": "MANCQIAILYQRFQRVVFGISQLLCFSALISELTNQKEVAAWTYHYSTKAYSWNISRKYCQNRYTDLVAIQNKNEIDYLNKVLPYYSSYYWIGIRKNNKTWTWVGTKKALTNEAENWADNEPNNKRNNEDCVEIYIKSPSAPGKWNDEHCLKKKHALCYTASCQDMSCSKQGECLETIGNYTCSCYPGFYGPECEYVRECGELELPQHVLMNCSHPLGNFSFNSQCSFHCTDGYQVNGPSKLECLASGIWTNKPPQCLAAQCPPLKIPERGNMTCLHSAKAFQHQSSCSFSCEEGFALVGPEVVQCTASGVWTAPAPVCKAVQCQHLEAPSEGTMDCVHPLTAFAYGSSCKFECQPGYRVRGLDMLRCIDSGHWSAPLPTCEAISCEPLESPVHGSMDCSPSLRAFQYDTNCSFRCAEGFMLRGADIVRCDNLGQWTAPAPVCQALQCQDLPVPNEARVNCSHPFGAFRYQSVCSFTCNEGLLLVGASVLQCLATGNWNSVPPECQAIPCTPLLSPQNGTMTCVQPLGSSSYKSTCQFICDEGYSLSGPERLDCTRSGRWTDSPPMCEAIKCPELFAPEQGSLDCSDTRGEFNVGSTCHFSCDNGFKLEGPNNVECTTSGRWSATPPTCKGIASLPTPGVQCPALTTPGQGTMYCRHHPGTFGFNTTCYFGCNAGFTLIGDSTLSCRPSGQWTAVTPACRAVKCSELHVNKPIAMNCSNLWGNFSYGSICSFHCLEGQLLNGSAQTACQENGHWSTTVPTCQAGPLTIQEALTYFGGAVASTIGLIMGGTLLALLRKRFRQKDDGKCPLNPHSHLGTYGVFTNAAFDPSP", "test": "Ratio of compound IC50 to sialyl Lewisx IC50 for solube P-selectin by surface plasmon resonance competitive binding assay"}, "P-selectin": {"target": "T2, P-selectin (Homo sapiens, UniProt P16109)", "T2 sequence (P16109 whole entry)": "T1 sequence (whole entry)", "test": "Inhibition of immobilized rhPSGL-Ig binding to soluble P-selectin by surface plasmon resonance competitive binding assay"}},
  "data": [
    {"molecule": "COC(=O)[C@H](O[C@@H]1O[C@@H](C)[C@@H](O)[C@@H](O)[C@@H]1O)[C@@H](O[C@@H]1O[C@H](CO)[C@H](OC(=O)c2ccccc2)[C@H](O[C@H](Cc2ccccc2)C(=O)O)[C@H]1O)C(=O)OC", "values": [
      {"measurement": "Ratio IC50", "setting": "[1]", "result": 37},
      {"measurement": "IC50", "setting": "P-selectin", "result": 18, "unit": "µM"}
    ]},
    {"molecule": "COC(=O)[C@H](O[C@@H]1O[C@@H](C)[C@@H](O)[C@@H](O)[C@@H]1O)[C@@H](O[C@@H]1O[C@H](CO)[C@H](O)[C@H](OCC(=O)O)[C@H]1O)C(=O)OC", "values": [
      {"measurement": "IC50", "setting": "P-selectin", "result": "> 1000", "unit": "µM"}
    ]},
    {"molecule": "COC(=O)[C@H](O[C@@H]1O[C@@H](C)[C@@H](O)[C@@H](O)[C@@H]1O)[C@@H](O[C@@H]1O[C@H](CO)[C@H](OC(=O)c2cccc3ccccc23)[C@H](O[C@H](Cc2ccccc2)C(=O)O)[C@H]1O)C(=O)OC", "values": [
      {"measurement": "IC50", "setting": "P-selectin", "result": "> 1000", "unit": "µM"}
    ]},
    {"molecule": "COC(=O)[C@H](O[C@@H]1O[C@@H](C)[C@@H](O)[C@@H](O)[C@@H]1O)[C@@H](O[C@@H]1O[C@H](CO)[C@H](O)[C@H](O[C@H](Cc2ccccc2)C(=O)O)[C@H]1O)C(=O)OC", "values": [
      {"measurement": "Ratio IC50", "setting": "[1]", "result": 0.75},
      {"measurement": "IC50", "setting": "P-selectin", "result": 880, "unit": "µM"}
    ]}
  ]
}
